# Data taken from the supplement of paper PMC10307832.
# Tests used:
# Experiment in all cases: relative viability (nuclei count vs DMSO), 5 days (fraction); higher = more cells survive
# [1] = compound: NC(=O)[C@@H](CCC(F)(F)F)N(Cc1ccc(-c2ncon2)cc1F)S(=O)(=O)c1ccc(Cl)cc1 [Avagacestat] + Cc1nc(NC(=O)N2CCC[C@H]2C(N)=O)sc1-c1ccnc(C(C)(C)C(F)(F)F)c1 [Alpelisib] (partner 2 µM)
# In short: (§1)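 Cells from lung cancer lines were seeded into 1536-well plates and, one day later, dosed by pin tool. Treatments were either a single drug or a fixed dose of an anchor drug with five library-drug doses (not always all listed) in √10 steps. After 5 days, nuclei were stained in a one-step fixation (final 0.05% Triton X-100, 1% formaldehyde, 1 ug/ml Hoechst) and counted on 4× images, and relative viability is the treated-to-vehicle nuclei ratio, as the median of duplicate plates.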
# [2] = compound: NC(=O)[C@@H](CCC(F)(F)F)N(Cc1ccc(-c2ncon2)cc1F)S(=O)(=O)c1ccc(Cl)cc1 [Avagacestat] + CC(=O)c1c(C)c2cnc(Nc3ccc(N4CCNCC4)cn3)nc2n(C2CCCC2)c1=O [Palbociclib] (partner 0.5 µM)
# In short: as §1
# [3] = compound: NC(=O)[C@@H](CCC(F)(F)F)N(Cc1ccc(-c2ncon2)cc1F)S(=O)(=O)c1ccc(Cl)cc1 [Avagacestat] + O=C(c1cc(Cc2n[nH]c(=O)c3ccccc23)ccc1F)N1CCN(C(=O)C2CC2)CC1 [Olaparib] (partner 8 µM)
# In short: as §1
# [4] = compound: NC(=O)[C@@H](CCC(F)(F)F)N(Cc1ccc(-c2ncon2)cc1F)S(=O)(=O)c1ccc(Cl)cc1 [Avagacestat] + Nc1nc2[nH]cc(CCc3ccc(C(=O)N[C@@H](CCC(=O)O)C(=O)O)cc3)c2c(=O)[nH]1 [Pemetrexed] (partner 0.2 µM)
# In short: as §1
Cell Line,relative viability ([1]; first compound 0.08 µM),relative viability ([1]; first compound 0.253 µM),relative viability ([1]; first compound 0.8 µM),relative viability ([1]; first compound 2.53 µM),relative viability ([1]; first compound 8 µM),relative viability ([2]; first compound 0.08 µM),relative viability ([2]; first compound 0.253 µM),relative viability ([2]; first compound 0.8 µM),relative viability ([2]; first compound 2.53 µM),relative viability ([2]; first compound 8 µM),relative viability ([3]; first compound 0.08 µM),relative viability ([3]; first compound 0.253 µM),relative viability ([3]; first compound 0.8 µM),relative viability ([3]; first compound 2.53 µM),relative viability ([3]; first compound 8 µM),relative viability ([4]; first compound 0.08 µM),relative viability ([4]; first compound 0.253 µM),relative viability ([4]; first compound 0.8 µM),relative viability ([4]; first compound 2.53 µM),relative viability ([4]; first compound 8 µM)
NCI-H3122,0.903,0.966,0.802,0.813,0.739,0.198,0.191,0.248,0.221,0.182,0.717,0.735,0.885,0.659,0.645,0.216,0.238,0.208,0.195,0.205
PC-3 [JPC-3],1.04,1.18,1.12,1.12,1.03,0.544,0.574,0.66,0.562,0.6,1.21,1.28,1.36,1.13,1.2,1.24,1.36,1.62,1.25,1.04
PC-14,0.9,1.05,0.975,1.06,0.587,0.645,0.618,0.687,0.461,0.524,0.316,0.418,0.298,0.251,0.3,0.137,0.142,0.134,0.124,0.136
RERF-LC-KJ,0.813,0.823,0.831,0.831,0.703,1.16,1.23,1.2,1.09,1.14,1.07,1.12,1.06,1,0.978,0.479,0.477,0.461,0.465,0.437
SK-LU-1,1.02,0.633,0.937,0.773,0.807,0.377,0.372,0.327,0.338,0.345,0.472,0.62,0.515,–,0.374,1.19,0.972,0.951,0.97,0.741
SK-MES-1,0.992,0.948,0.741,0.892,0.457,0.318,0.342,0.329,0.307,0.32,0.905,0.772,0.88,0.667,0.646,1.08,1.07,1.05,0.878,0.892
SW 1573,0.858,0.855,0.688,0.753,0.494,0.512,0.422,0.475,0.337,0.357,0.643,0.572,0.465,0.472,0.47,0.99,1.01,0.925,0.887,0.85
UMC-11,1.22,1.19,1.21,0.885,0.933,0.325,0.312,0.323,0.315,0.34,0.387,0.698,0.356,0.385,0.389,0.884,0.887,1.01,0.796,0.718
